Results from article PMC10888717, “Identification of Novel Non-Nucleoside Inhibitors of Zika Virus NS5 Protein Targeting MTase Activity” (International Journal of Molecular Sciences, 2024).
“Also recorded” adds a separate entry of the source.

Assays:
ZIKV = ZIKV inhibitory viral plaque reduction assay in Vero E6 cells; assay type: cell-based, Zika virus
[1] = Cytotoxicity assay (MTT) on Vero E6 cells; assay type: cell-based; conditions: African green monkey; VERO E6 cells, MTT, 3 days; read-out: CC50 ± SD (half-maximal cytotoxic concentration)
Procedure: Compounds characterized by the best anti-enzymatic activity were tested against ZIKV in cellular assays. VERO E6 cells were infected with ZIKV at a multiplicity of infection (M.O.I.) of 0.1, and their activities were evaluated by a plaque reduction assay three days post-infection. Ribavirin was used as a reference compound. As reported in Table 2, compound 1, identified in the first screening, was unable to inhibit viral replication up to a 100 μM concentration. […] The cytotoxicity of the series was determined on the same cell line. […] Their selectivity indexes were calculated as the ratio between CC50 and IC50 values; the results highlight their promising safety profile.
Monolayers of 2.5 × 10^4 Vero E6 cells per well were grown in flat-bottom 96-well culture plates and allowed to adhere overnight. Then, when the cell layers were confluent, the medium was removed, the wells were washed twice with PBS, treated with 100 µL of DMEM with 10 µL DMSO alone (cell positive control) or with various concentrations of anti-NS5 inhibitory compounds under study (compound final concentrations of 100, 10, 1, 0.1, and 0.01 μM), and incubated for 3 days at 37 °C in a CO2. After treatment, an MTT (3-(4,5-dimethylthiazol-2-yl)-2,5-diphenyltetrazolium bromide) kit (Roche, Milan, Italy) was used according to the supplier’s instructions, and the absorbance of each well was determined using a microplate spectrophotometer at a wavelength of 570 nm. Cytotoxicity was calculated by dividing the average optical density of treated samples by the average of DMSO-treated samples (cell positive control).

ZIKV NS5 MTase = molecular target: T1, ZIKV NS5 MTase (Zika virus, UniProt A0A024B7W1); test: ZIKV NS5 MTase radioactive filter-binding assay (2′-O-MTase activity); assay type: biochemical; conditions: at least two experiments, read-out: IC50 (half-maximal inhibitory enzymatic concentration)
T1 construct: KJ776791.2, aa 4–278; His6 (N); made in house; host or cells: Escherichia coli T7 Express Iq
T1 sequence (A0A024B7W1 2524-2798): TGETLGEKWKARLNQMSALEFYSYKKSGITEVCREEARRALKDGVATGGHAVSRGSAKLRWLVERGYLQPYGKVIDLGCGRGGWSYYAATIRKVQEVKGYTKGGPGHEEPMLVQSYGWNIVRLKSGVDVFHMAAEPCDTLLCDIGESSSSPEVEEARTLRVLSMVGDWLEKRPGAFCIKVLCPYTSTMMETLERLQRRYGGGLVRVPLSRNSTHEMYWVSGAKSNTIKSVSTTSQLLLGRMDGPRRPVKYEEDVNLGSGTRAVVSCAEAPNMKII
Procedure: Selected compounds were evaluated in enzymatic inhibition assays against both ZIKV and DENV 2′-O-MTase activity (For details, see Figure S3 in Supplementary Materials). The screening of compounds at a concentration of 50 µM highlighted a higher inhibitory activity against ZIKV MTase. We thus focused our efforts on ZIKV and determined the IC50 values against ZIKV MTase.
Expression and purification of ZIKV NS5 MTase: The coding sequence of the ZIKV NS5 MTase domain (strain H/PF/2013, GenBank accession no. KJ776791.2, aa 4–278) was synthesized by Genscript and cloned into a pQE30 vector (Qiagen, Hilden, Germany) with an N-terminal His6 tag. The protein was expressed and purified following the procedures described in Coutard et al..
Briefly, after expression in Escherichia coli T7 Express Iq (New England BioLabs) in Terrific Broth at 17 °C overnight, bacterial pellets were resuspended in lysis buffer (50 mM Tris-HCl [pH 8], 300 mM NaCl, 5% glycerol, 0.1% Triton, 10 μg/mL DNase I, 2 tablets of EDTA-free antiprotease cocktail [Roche] and 0.25 mg/mL lysozyme). Following cell lysis and clarification, the protein was purified by affinity on immobilized metal affinity chromatography (IMAC, His prep column [GE Healthcare]), followed by size exclusion chromatography (Superdex S75 HR 16/20 column [GE Healthcare]). The NS5-MTase was concentrated and stored at −20 °C after adding glycerol to a final concentration of 40%.
Filter-binding assay: The transfer of tritiated methyl from ^[3H]SAM onto RNA substrate was monitored by a filter-binding assay (FBA), performed according to the method described previously. FBA was carried out in a reaction mixture [40 mM Tris-HCl (pH 8.0), 1 mM DTT, 2 μM SAM, and 0.1 μM 3H-SAM (Perkin Elmer, Shelton, CT, USA)] in the presence of 0.7 μM synthetic ^7mGpppAC4 and ZIKV NS5 MTase (500 nM). The enzyme was first mixed with an increasing concentration of inhibitors, previously suspended in dimethyl sulfoxide (DMSO), before the addition of RNA substrate and SAM, and then incubated at 30 °C. The final DMSO concentration in reactions was 5%. Reaction mixtures were stopped after 30 min incubation by their 10-fold dilution in ice-cold water. Samples were transferred to diethylaminoethyl (DEAE) filtermat (Perkin Elmer, Shelton, CT, USA) using a Filtermat Harvester (Packard Instruments, Meriden, CT, USA). The RNA-retaining mats were washed twice with 10 mM ammonium formate pH 8.0, twice with water, and once with ethanol before drying. They were soaked with scintillation fluid (Perkin Elmer, Shelton, CT, USA), and 3H-methyl transfer to the RNA substrates was determined using a Wallac MicroBeta TriLux Liquid Scintillation Counter (Perkin Elmer, Shelton, CT, USA). For IC50 measurements, values were normalized and fitted with Prism (GraphPad software version 10.1.1) using the following equation: Y = 100/(1 + ((X/IC50) ^ Hillslope)).

[2] = tested on: Tenebrio molitor coleoptera (TMC); test: Median lethal dose assessment in Tenebrio molitor coleoptera; assay type: in vivo; conditions: acute administration
Procedure: (§1) The median lethal dose (LD50) was determined for compound 17 in a Tenebrio molitor coleoptera (TMC) toxicity model published previously. Due to ethical reasons, and according to the 3Rs principle, the insect model was preferred to the murine model to preliminarily evaluate the potential in vivo toxicity. […] The experiment was repeated until LD50 was determined and finally confirmed with ten TMCs. […] Even if complete pharmacokinetics should be performed to determine plasmatic levels, the administered concentration was higher than IC50. Considering that no antiviral efficacy models have been developed in insects, future studies with optimized compounds should be translated into suitable models (i.e., mice).
(§2) Tenebrio molitor coleoptera (TMC) and pupae for acute toxicity tests were fed at the University of Siena (Siena, Italy) on a diet previously published. Pupae and adult TMC were reared in semi-dark conditions at a temperature of 27 ± 1 °C and a relative humidity (RH) of 40–50%.
(§3) Median lethal dose assessment was carried out as previously published. Three days after the mutation, TMCs were randomly chosen. The appropriate amount of compound 17 was solubilized at the appropriate dose expressed in mg/kg of insect weight. […]

[3] = as above; assay type: in vivo; conditions: in vivo, 200 mg/kg, single dose into hemocoel, 7 days observation
Procedure: as §1, §2, §3

For `CN1C(=O)c2ccc(NC(=O)c3cc4cccc(Cl)c4s3)cc2C1=O` [Compound 17], the “SI (Selectivity Index, ratio between CC50 and IC50)” value (ZIKV; VERO E6 cells) was >200, the IC50 (ZIKV; Zika virus, Vero C1008, read-out: IC50 ± SD (half-maximal inhibitory concentration, ZIKV plaque reduction)) was 0.5 ± 0.1 µM and the CC50 at 3 days [1] was > 100 µM. The IC50 (ZIKV NS5 MTase) was 11.4 µM, the “in vivo toxicity (in words)” value [2] was “well tolerated; also recorded: less toxic than commonly used drugs such as paracetamol and carbamazepine” and the LD50 at 7 days [3] was 150 mg/kg.
